Source: patent publication US20210169824A1, “USE OF CANNABINOIDS IN THE TREATMENT OF SEIZURES AS ASSOCIATED WITH LENNOX-GASTAUT SYNDROME” (GW Research Limited, priority 2017, published 2021)

Columns and labels:
[1] = patients with epilepsy, open label study, Gaston et al. 2017; cited from earlier work
[2] = test system: seizures associated with Lennox-Gastaut syndrome (LGS) in treatment-resistant patients; assay: Pooled analysis of two randomised, double-blind, placebo-controlled 14-week studies of add-on cannabidiol in LGS patients deemed AED treatment failures; assay type: in vivo, human; conditions: for Total Seizure Frequency, Treatment Difference vs. Placebo / Drop Seizure Frequency, Treatment Difference vs. Placebo: Hodges-Lehmann estimated median difference; for Drop Seizure Frequency, Median % Change During Treatment / Total Seizure Frequency, Median % Change During Treatment: from baseline
Source text: In two placebo-controlled studies of CBD as a treatment for seizures associated with LGS, cannabidiol was used as add-on treatment in patients who were defined as treatment-resistant. Patients had previously tried and stopped using a median of 6 AEDs, and were being maintained on a median of 3 AEDs.
The first study was a 1:1 randomised, double-blind, 14-week comparison of cannabidiol oral solution (CBD-OS) versus placebo. The treatment period consisted of a two-week titration period followed by a 12-week maintenance period. The treatment period was followed by a 10-day taper period and a four-week follow-up period. The study aimed to determine the efficacy, safety and tolerability of 20 mg/kg/day cannabidiol compared with placebo.
The second study was a 1:1:1 randomised, double-blind, 14-week comparison of two dose levels of cannabidiol (10 mg/kg/day and 20 mg/kg/day) versus placebo. The treatment period consisted of a two-week titration period followed by a 12-week maintenance period. The treatment period was followed by a 10-day taper period and a four-week follow-up period. The study aimed to determine the efficacy, safety and tolerability of two dose levels of CBD-OS compared with placebo. Patients in the placebo group were split into two equivalent cohorts; half receiving 10 mg/kg/day dosing volumes and half receiving 20 mg/kg/day dosing volumes.
In order to ensure that caregivers were able to interpret a seizure correctly, all caregivers underwent pre-study training, and their description and classification of a seizure was independently verified by a committee appointed by the Epilepsy Study Consortium
Despite the number of medications, the patients were already taking, the median number of drop seizures at baseline was in excess of 75 per month in both studies. These were patient populations with a high unmet medical need, who had already tried and failed multiple AEDs. In many cases, the AEDs they were being maintained on included those approved for the treatment of LGS; rufinamide, lamotrigine or topiramate.
An analysis of the change in seizure frequency for CBD vs placebo in patients who were currently taking, or had previously taken and stopped, each of rufinamide, lamotrigine or topiramate; felbamate was undertaken. Such patients can be reasonably defined as AED treatment failures.

[3] = Felbamate treatment failures, 10 mg/kg/day, N = 22
[4] = Felbamate treatment failures, 10 mg/kg/day, N = 22, P-value 0.1921 vs placebo
[5] = Felbamate treatment failures, 20 mg/kg/day, N = 38
[6] = Felbamate treatment failures, 20 mg/kg/day, N = 38, P-value 0.0068 vs placebo
[7] = Lamotrigine treatment failures, 10 mg/kg/day, N = 49
[8] = Lamotrigine treatment failures, 10 mg/kg/day, N = 49, P-value 0.0131 vs placebo
[9] = Lamotrigine treatment failures, 20 mg/kg/day, N = 114
[10] = Lamotrigine treatment failures, 20 mg/kg/day, N = 114, P-value <0.0001 vs placebo
[11] = Rufinamide treatment failures, 10 mg/kg/day, N = 47
[12] = Rufinamide treatment failures, 10 mg/kg/day, N = 47, P-value 0.1836 vs placebo
[13] = Rufinamide treatment failures, 20 mg/kg/day, N = 95
[14] = Rufinamide treatment failures, 20 mg/kg/day, N = 95, P-value 0.0011 vs placebo
[15] = Topiramate treatment failures, 10 mg/kg/day, N = 56
[16] = Topiramate treatment failures, 10 mg/kg/day, N = 56, P-value 0.0517 vs placebo
[17] = Topiramate treatment failures, 20 mg/kg/day, N = 111
[18] = Topiramate treatment failures, 20 mg/kg/day, N = 111, P-value 0.0016 vs placebo
[19] = felbamate treatment failures, 20 mg/kg dose
[20] = lamotrigine treatment failures, both doses (10 and 20 mg/kg/day)
[21] = rufinamide treatment failures, 20 mg/kg/day dose

C=C(C)[C@@H]1CCC(C)=C[C@H]1c1c(O)cc(CCCCC)cc1O [Cannabidiol]
serum levels of some AEDs in the presence of CBD [1]: increased
reduction in drop and total seizure frequency in patients deemed to be treatment failures ([2]; CBD combined with rufinamide, lamotrigine, topiramate or felbamate): statistically significant reduction
Total Seizure Frequency, Treatment Difference vs. Placebo ([2]; Felbamate treatment failures, 10 mg/kg/day, P-value 0.0282): −21.77%
Drop Seizure Frequency, Treatment Difference vs. Placebo ([2]; Felbamate treatment failures, 10 mg/kg/day, P-value 0.2984): −11.57%
Drop Seizure Frequency, Treatment Period Median [2, 3]: 68.26 per 28 Days
Total Seizure Frequency, Treatment Period Median [2, 3]: 103.09 per 28 Days
Number of Responders, ≥50% Reduction in Drop Seizure Frequency from Baseline [2, 4]: 6
Responders (%), ≥50% Reduction in Drop Seizure Frequency from Baseline [2, 4]: 27.3%
Drop Seizure Frequency, Median % Change During Treatment [2, 3]: −30.50%
Total Seizure Frequency, Median % Change During Treatment [2, 3]: −34.36%
Drop Seizure Frequency, Treatment Difference vs. Placebo ([2]; Felbamate treatment failures, 20 mg/kg/day, P-value 0.0930): −17.76%
Total Seizure Frequency, Treatment Difference vs. Placebo ([2]; Felbamate treatment failures, 20 mg/kg/day, P-value 0.1179): −14.58%
Drop Seizure Frequency, Treatment Period Median [2, 5]: 47.32 per 28 Days
Total Seizure Frequency, Treatment Period Median [2, 5]: 102.20 per 28 Days
Number of Responders, ≥50% Reduction in Drop Seizure Frequency from Baseline [2, 6]: 15
Responders (%), ≥50% Reduction in Drop Seizure Frequency from Baseline [2, 6]: 39.5%
Drop Seizure Frequency, Median % Change During Treatment [2, 5]: −31.62%
Total Seizure Frequency, Median % Change During Treatment [2, 5]: −27.56%
Drop Seizure Frequency, Treatment Difference vs. Placebo ([2]; Lamotrigine treatment failures, 10 mg/kg/day, P-value 0.0040): −18.79%
Total Seizure Frequency, Treatment Difference vs. Placebo ([2]; Lamotrigine treatment failures, 10 mg/kg/day, P-value 0.0044): −19.63%
Drop Seizure Frequency, Treatment Period Median [2, 7]: 40.29 per 28 Days
Total Seizure Frequency, Treatment Period Median [2, 7]: 68.41 per 28 Days
Number of Responders, ≥50% Reduction in Drop Seizure Frequency from Baseline [2, 8]: 17
Responders (%), ≥50% Reduction in Drop Seizure Frequency from Baseline [2, 8]: 34.7%
Drop Seizure Frequency, Median % Change During Treatment [2, 7]: −37.16%
Total Seizure Frequency, Median % Change During Treatment [2, 7]: −32.87%
Total Seizure Frequency, Treatment Difference vs. Placebo ([2]; Lamotrigine treatment failures, 20 mg/kg/day, P-value 0.0008): −17.35%
Drop Seizure Frequency, Treatment Difference vs. Placebo ([2]; Lamotrigine treatment failures, 20 mg/kg/day, P-value 0.0023): −19.24%
Drop Seizure Frequency, Treatment Period Median [2, 9]: 36.30 per 28 Days
Total Seizure Frequency, Treatment Period Median [2, 9]: 98.64 per 28 Days
Number of Responders, ≥50% Reduction in Drop Seizure Frequency from Baseline [2, 10]: 47
Responders (%), ≥50% Reduction in Drop Seizure Frequency from Baseline [2, 10]: 41.2%
Drop Seizure Frequency, Median % Change During Treatment [2, 9]: −40.74%
Total Seizure Frequency, Median % Change During Treatment [2, 9]: −34.44%
Total Seizure Frequency, Treatment Difference vs. Placebo ([2]; Rufinamide treatment failures, 10 mg/kg/day, P-value 0.0062): −17.54%
Drop Seizure Frequency, Treatment Difference vs. Placebo ([2]; Rufinamide treatment failures, 10 mg/kg/day, P-value 0.1314): −9.80%
Drop Seizure Frequency, Treatment Period Median [2, 11]: 56.00 per 28 Days
Total Seizure Frequency, Treatment Period Median [2, 11]: 95.51 per 28 Days
Number of Responders, ≥50% Reduction in Drop Seizure Frequency from Baseline [2, 12]: 13
Responders (%), ≥50% Reduction in Drop Seizure Frequency from Baseline [2, 12]: 27.7%
Drop Seizure Frequency, Median % Change During Treatment [2, 11]: −32.95%
Total Seizure Frequency, Median % Change During Treatment [2, 11]: −31.25%
Total Seizure Frequency, Treatment Difference vs. Placebo ([2]; Rufinamide treatment failures, 20 mg/kg/day, P-value 0.0008): −19.43%
Drop Seizure Frequency, Treatment Difference vs. Placebo ([2]; Rufinamide treatment failures, 20 mg/kg/day, P-value 0.0022): −19.34%
Drop Seizure Frequency, Treatment Period Median [2, 13]: 42.30 per 28 Days
Total Seizure Frequency, Treatment Period Median [2, 13]: 102.20 per 28 Days
Number of Responders, ≥50% Reduction in Drop Seizure Frequency from Baseline [2, 14]: 37
Responders (%), ≥50% Reduction in Drop Seizure Frequency from Baseline [2, 14]: 38.9%
Drop Seizure Frequency, Median % Change During Treatment [2, 13]: −38.78%
Total Seizure Frequency, Median % Change During Treatment [2, 13]: −34.90%
Total Seizure Frequency, Treatment Difference vs. Placebo ([2]; Topiramate treatment failures, 10 mg/kg/day, P-value 0.0047): −17.04%
Drop Seizure Frequency, Treatment Difference vs. Placebo ([2]; Topiramate treatment failures, 10 mg/kg/day, P-value 0.0074): −16.92%
Drop Seizure Frequency, Treatment Period Median [2, 15]: 57.02 per 28 Days
Total Seizure Frequency, Treatment Period Median [2, 15]: 88.31 per 28 Days
Number of Responders, ≥50% Reduction in Drop Seizure Frequency from Baseline [2, 16]: 17
Responders (%), ≥50% Reduction in Drop Seizure Frequency from Baseline [2, 16]: 30.4%
Drop Seizure Frequency, Median % Change During Treatment [2, 15]: −36.08%
Total Seizure Frequency, Median % Change During Treatment [2, 15]: −31.57%
Total Seizure Frequency, Treatment Difference vs. Placebo ([2]; Topiramate treatment failures, 20 mg/kg/day, P-value 0.0034): −15.87%
Drop Seizure Frequency, Treatment Difference vs. Placebo ([2]; Topiramate treatment failures, 20 mg/kg/day, P-value 0.0069): −16.83%
Drop Seizure Frequency, Treatment Period Median [2, 17]: 44.00 per 28 Days
Total Seizure Frequency, Treatment Period Median [2, 17]: 101.71 per 28 Days
Number of Responders, ≥50% Reduction in Drop Seizure Frequency from Baseline [2, 18]: 40
Responders (%), ≥50% Reduction in Drop Seizure Frequency from Baseline [2, 18]: 36.0%
Drop Seizure Frequency, Median % Change During Treatment [2, 17]: −34.13%
Total Seizure Frequency, Median % Change During Treatment [2, 17]: −33.76%
proportion of patients with a 50% reduction in drop seizure frequency compared with placebo [2, 19]: statistically significantly greater proportion
reduction in drop seizure frequency compared with placebo [2, 19]: marginally statistically significantly greater reduction
proportion of patients with a 50% reduction in drop seizure frequency compared with placebo [2, 20]: significantly greater proportion
reduction in both drop and total seizure frequency compared with placebo [2, 20]: significantly greater reduction
benefit in patients taking without seizure control, or having stopped, the AEDs authorised for LGS in the EU ([2]; pooled data from two studies, effect most significant at 20 mg/kg/day): significant benefit
proportion of patients with a 50% reduction in drop seizure frequency compared with placebo [2, 21]: significantly greater proportion
reduction in drop and total seizure frequency compared with placebo [2, 21]: significantly greater reduction
reduction in both drop and total seizure frequency compared with placebo ([2]; topiramate treatment failures, both doses (10 and 20 mg/kg/day)): significantly greater reduction
proportion of patients with a 50% reduction in drop seizure frequency compared with placebo ([2]; topiramate treatment failures, both doses, statistical significance for 20 mg/kg/day, only marginal for 10 mg/kg/day): greater proportion
